Laboratory results reported in patent US7671061B2, “Methods and compositions for treating pain” (Hydra Biosciences, Inc., priority 2005, dated 2010).
pIC50: −log10 of the molar value.

Tests used:
hTRPA1 [1] = molecular target: T1, hTRPA1 (Homo sapiens, UniProt O75762, K186N); assay: TRPA1 patch clamp (perforated patch, AITC-activated current); assay type: cell-based
T1 construct: expressed in transfected cells; host or cells: HEK293/TREx (Invitrogen), induced with tetracycline
Text: Patch clamp experiments permit the detection of currents through the TRPA1 channel in the cell line described above. To permit recording of current at a stable level and prevent the “rundown” observed by other labs, it is necessary to use the perforated patch technique, which prevents dialysis of the cytoplasm with the pipette solution. In normal whole-cell patch clamp recordings, a glass electrode is brought into contact with a single cell and a high-resistance (gigaohm) seal is established with the cell membrane. The membrane is then ruptured to achieve the whole-cell configuration, permitting control of the voltage of the cell membrane and measurement of currents flowing across the membrane using the amplifier attached to the electrode and resulting in the replacement of cytoplasm with the pipette solution. In contrast, in the perforated patch mode, an antibiotic, amphotericin, is present in the pipette solution and diffuses into contact with the cell after the seal is achieved, over the course of several minutes. The amphotericin forms ion-permeable pores in the membrane under the pipette, permitting passage of some ions but maintaining most native cytosolic components. A perfusion system permits control of the extracellular solution, including the addition of blockers and activators of the current. The current can be activated by addition of 5 μM AITC to the solution. […] In some cases, cells were grown in low density overnight on glass coverslips. Patch clamp recordings were made in the whole-cell mode with a holding potential of −40 mV. Every 5 seconds, a voltage ramp was applied from −120 to +100 mV, 400 ms in duration. Currents elicited were quantified at −80 mV and +80 mV. […] The external solution consisted of 150 mM NaCl, 4.5 mM KCl, 3 mM MgCl2, 10 mM HEPES, […], 1 mM EGTA, pH 7.4. Upon addition of AITC, TRPA1 current was induced only in TRPA1-expressing cells and not in parental HEK293 TREx cells. Removal of the AITC stimulus causes most of the current to go away. Potential blockers were tested for ability to block both inward and outward currents in the continued presence of AITC.

hTRPA1 [2] = molecular target: T1, hTRPA1; assay: High throughput Ca2+ fluorescence (Fluo4) assay, AITC stimulation; assay type: cell-based
In short: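 Tetracycline-induced HEK293/TREx cells loaded with 1 μM Fluo4/AM for 60 min at room temperature. Compound added for 2 min after a 4-frame baseline, then AITC; fluorescence followed ~3 min.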

[3] = Table 2, inward current, read-out: hTRPA1 Patch Inwd IC50
[4] = Table 2, read-out: hTRPA1 Fluor IC50
[5] = Table 1, read-out: hTRPA1 Patch IC50
[6] = Table 1, read-out: hTRPA1 Fluo4 IC50

T1 sequence (O75762 whole entry K186N): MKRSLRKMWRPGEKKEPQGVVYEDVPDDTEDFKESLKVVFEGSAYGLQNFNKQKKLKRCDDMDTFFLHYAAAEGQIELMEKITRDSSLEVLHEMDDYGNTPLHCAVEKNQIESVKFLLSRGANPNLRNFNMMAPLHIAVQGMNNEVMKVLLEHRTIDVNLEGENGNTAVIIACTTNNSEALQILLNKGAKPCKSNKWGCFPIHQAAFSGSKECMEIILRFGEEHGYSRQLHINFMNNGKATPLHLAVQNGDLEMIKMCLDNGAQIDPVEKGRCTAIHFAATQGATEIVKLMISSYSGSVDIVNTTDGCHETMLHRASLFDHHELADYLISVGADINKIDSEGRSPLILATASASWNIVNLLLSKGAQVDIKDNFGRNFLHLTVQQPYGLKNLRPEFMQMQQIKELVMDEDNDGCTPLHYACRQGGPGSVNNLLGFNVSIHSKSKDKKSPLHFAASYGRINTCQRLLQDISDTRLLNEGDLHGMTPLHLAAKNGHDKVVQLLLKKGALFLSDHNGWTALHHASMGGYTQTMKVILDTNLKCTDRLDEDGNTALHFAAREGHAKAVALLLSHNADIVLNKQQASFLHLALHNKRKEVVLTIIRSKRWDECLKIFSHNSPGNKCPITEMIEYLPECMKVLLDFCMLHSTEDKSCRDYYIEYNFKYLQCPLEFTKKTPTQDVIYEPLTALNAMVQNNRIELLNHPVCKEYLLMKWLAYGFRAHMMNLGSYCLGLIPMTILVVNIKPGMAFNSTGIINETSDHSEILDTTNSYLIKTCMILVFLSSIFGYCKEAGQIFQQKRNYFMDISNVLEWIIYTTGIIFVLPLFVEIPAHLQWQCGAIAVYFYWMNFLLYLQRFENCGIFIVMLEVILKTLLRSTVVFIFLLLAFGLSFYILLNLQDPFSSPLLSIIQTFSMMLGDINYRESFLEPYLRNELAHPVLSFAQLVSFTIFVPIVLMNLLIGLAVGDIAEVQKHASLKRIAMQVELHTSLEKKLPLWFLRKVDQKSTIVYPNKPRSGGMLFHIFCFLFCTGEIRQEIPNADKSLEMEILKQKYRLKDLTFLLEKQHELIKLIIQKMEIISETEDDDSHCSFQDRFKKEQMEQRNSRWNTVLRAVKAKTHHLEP

Compound	pIC50 (hTRPA1 [1]; [3])	pIC50 (hTRPA1 [2]; [4])	pIC50 (hTRPA1 [1]; [5])	pIC50 (hTRPA1 [2]; [6])	IC50 (hTRPA1 [1]; hTRPA1 Patch IC50 (nM), Table 1) [nM]
CCOC(=O)C1=C(c2ccccc2)NC(=S)NC1c1cccc(OC)c1 (centres unmarked)	–	–	≥ 5.30	≥ 5.30	–
CCOC(=O)C1=C(C)NC(=S)NC1c1cccc(OC)c1 (centres unmarked)	–	–	–	≥ 5.30	≤ 10000
Cn1c(=O)c2c(ncn2CC(=O)Nc2ccc([N+](=O)[O-])cc2)n(C)c1=O [Compound 210]	≥ 5.00	≤ 4.70	–	–	–
CCOC(=O)C1=C(C)NC(=S)NC1c1ccccc1C (centres unmarked)	–	–	≥ 5.30	≥ 5.30	–
C=CCOc1cccc(C2NC(=S)NC(C)=C2C(=O)OCC)c1 (centres unmarked)	–	–	≥ 6.00	≥ 5.30	–
Cn1c(=O)c2c(ncn2CC(=O)Nc2ccc(Br)cc2F)n(C)c1=O [Compound 371]	≥ 5.30	≥ 5.30	–	–	–
Cn1c(=O)c2c(ncn2CC(=O)Nc2ccc(Oc3ccccc3)cc2)n(C)c1=O [Compound 262]	≥ 6.30	≥ 5.30	–	–	–
CCc1ccc(NC(=O)C(C)n2cnc3c2c(=O)n(C)c(=O)n3C)cc1 (centres unmarked) [Compound 299]	≥ 5.00	≥ 5.30	–	–	–
COC(=O)C1=C(C)NC(=S)NC1c1cccc(Cl)c1Cl (centres unmarked)	–	–	≥ 6.00	≥ 5.30	–
CCCc1ccc(-c2csc(NC(=O)Cn3cnc4c3c(=O)n(C)c(=O)n4C)n2)cc1 [Compound 274]	≥ 6.00	≥ 5.30	–	–	–
Cc1ccccc1CNC(=O)Cn1cnc2c1c(=O)n(C)c(=O)n2C [Compound 313]	≥ 5.00	< 5.00	–	–	–
Cn1c(=O)c2c(ncn2CC(=O)Nc2ccc(N3CCCCC3)cc2)n(C)c1=O [Compound 252]	≥ 5.00	≥ 5.30	–	–	–
Cn1c(=O)c2c(ncn2CC(=O)Nc2ccc(C34CC5CC(CC(C5)C3)C4)cc2)n(C)c1=O [Compound 264]	≥ 6.30	≥ 5.30	–	–	–
CN(C)c1ccc(NC(=O)Cn2cnc3c2c(=O)n(C)c(=O)n3C)cc1 [Compound 201]	< 5.00	≤ 4.70	–	–	–
Cc1ccc(F)cc1NC(=O)Cn1cnc2c1c(=O)n(C)c(=O)n2C [Compound 277]	≥ 5.00	< 5.00	–	–	–
COC(=O)C1=C(C)NC(=S)NC1c1ccccc1 (centres unmarked)	–	–	< 5.00	≥ 5.30	–
Cn1c(=O)c2c(ncn2CC(=O)Nc2ccc(OCc3ccccc3)cc2)n(C)c1=O [Compound 224]	≥ 5.30	≥ 6.00	–	–	–

Compound	pIC50 (hTRPA1 [1]; [3])	pIC50 (hTRPA1 [2]; [4])	pIC50 (hTRPA1 [1]; [5])	pIC50 (hTRPA1 [2]; [6])	IC50 (hTRPA1 [1]; hTRPA1 Patch IC50 (nM), Table 1) [nM]
Cc1ccc(Oc2ccc(NC(=O)Cn3cnc4c3c(=O)n(C)c(=O)n4C)cc2)cc1 [Compound 266]	≥ 6.30	≥ 5.30	–	–	–
COC(=O)C1=C(C)NC(=S)NC1c1cc(C)ccc1C (centres unmarked)	–	–	≥ 5.30	≥ 5.30	–
Cn1c(=O)c2c(ncn2CC(=O)Nc2ccc(SC(F)F)cc2)n(C)c1=O [Compound 257]	≥ 6.00	≥ 6.00	–	–	–
Cn1c(=O)c2c(ncn2CC(=O)Nc2nc(-c3ccccc3)cs2)n(C)c1=O [Compound 230]	≥ 5.00	≥ 5.00	–	–	–
Cn1c(=O)c2c(ncn2CC(=O)NCCc2ccc(Cl)cc2)n(C)c1=O [Compound 268, N-[2-(4-Chlorophenyl)-ethyl]-2-(1,3-dimethyl-2,6-dioxo-1,2,3,6-tetrahydro-purin-7-yl)-acetamide]	≥ 6.00	< 5.00	–	–	–
Cn1c(=O)c2c(ncn2CC(=O)Nc2ccc3c(c2)OC2(CCCC2)O3)n(C)c1=O [Compound 344]	≥ 5.30	≥ 5.30	–	–	–
CCCC1=C(C(=O)OCC)C(c2ccccc2Cl)NC(=O)N1 (centres unmarked)	–	–	< 5.00	≥ 5.30	–
COC(=O)C1=C(c2ccccc2)NC(=S)NC1c1ccc(F)cc1 (centres unmarked)	–	–	< 5.00	< 5.00	–
Cn1c(=O)c2c(ncn2CC(=O)Nc2ccc(S(N)(=O)=O)cc2)n(C)c1=O [Compound 228]	< 5.00	< 5.00	–	–	–
Cn1c(=O)c2c(ncn2CC(=O)Nc2cccc(I)c2)n(C)c1=O [Compound 295]	≥ 6.00	≥ 5.30	–	–	–
CCOc1ccc(NC(=O)Cn2cnc3c2c(=O)n(C)c(=O)n3C)cc1 [Compound 208]	< 5.00	≥ 5.00	–	–	–
CC1=C(C(=O)OC(C)C)C(c2ccc(C)c(Br)c2)NC(=O)N1 (centres unmarked)	–	–	≥ 6.30	≥ 5.30	–
COC(=O)C1=C(C)NC(=S)NC1c1c(Cl)cccc1Cl (centres unmarked)	–	–	≥ 6.00	≥ 5.30	–
CC(C)Cc1nnc(NC(=O)Cn2cnc3c2c(=O)n(C)c(=O)n3C)s1 [Compound 235]	≥ 5.00	< 5.00	–	–	–
Cn1c(=O)c2c(ncn2CC(=O)Nc2ccc(F)cc2)n(C)c1=O [Compound 209]	< 5.00	≥ 5.00	–	–	–
Cn1c(=O)c2c(ncn2CC(=O)NC(c2ccccc2)c2ccccc2)n(C)c1=O [Compound 203]	< 5.00	< 5.00	–	–	–
CCOC(=O)C1=C(C)NC(=S)NC1c1cccc(O)c1 (centres unmarked)	–	–	< 5.00	≥ 5.00	–

More lines, main results first:

pIC50 (hTRPA1 [1]; [3])	pIC50 (hTRPA1 [2]; [4])	pIC50 (hTRPA1 [1]; [5])	pIC50 (hTRPA1 [2]; [6])	Compound	IC50 (hTRPA1 [1]; hTRPA1 Patch IC50 (nM), Table 1) [nM]
< 5.00	≥ 5.30	–	–	Cn1c(=O)c2c(ncn2CC(=O)NCC(C)(c2ccccc2)c2ccccc2)n(C)c1=O [Compound 348]	–
≥ 6.00	≥ 6.00	–	–	Cn1c(=O)c2c(ncn2CC(=O)Nc2ccc(Cl)c(C(F)(F)F)c2)n(C)c1=O [Compound 267]	–
≥ 6.00	≥ 5.30	–	–	Cn1c(=O)c2c(ncn2CC(=O)Nc2ccc(Br)cc2Cl)n(C)c1=O [Compound 333]	–
< 5.00	< 5.00	–	–	Cn1c(=O)c2c(ncn2CC(=O)Nc2ccncc2)n(C)c1=O [Compound 211]	–
≥ 5.00	< 5.00	–	–	Cn1c(=O)c2c(ncn2CC(=O)Nc2c(Cl)cccc2Cl)n(C)c1=O [Compound 305]	–
≥ 6.00	< 5.00	–	–	Cc1ccc(NC(=O)C(C)n2cnc3c2c(=O)n(C)c(=O)n3C)cc1 (centres unmarked) [Compound 315]	–
–	–	≥ 6.00	≥ 5.30	CCOC(=O)C1=C(C)NC(=S)NC1c1cccc(OCC)c1 (centres unmarked)	–
< 5.00	< 5.00	–	–	Cn1c(=O)c2c(ncn2CC(=O)Nc2ccc(C(N)=O)cc2)n(C)c1=O [Compound 212]	–
≥ 5.00	≥ 5.30	–	–	CC(C(=O)Nc1ccc(Br)cc1)n1cnc2c1c(=O)n(C)c(=O)n2C (centres unmarked) [Compound 296]	–
–	–	< 5.00	< 5.00	CCOC(=O)C1=C(c2ccccc2)NC(=S)NC1c1ccc(Cl)c(Cl)c1 (centres unmarked)	–
–	–	≥ 6.00	≥ 5.30	COC(=O)C1=C(C)NC(=S)NC1c1ccc(OC)c(Br)c1 (centres unmarked)	–
≥ 6.00	≥ 5.30	–	–	Cn1c(=O)c2c(ncn2CC(=O)Nc2ccc(Cl)cc2)n(C)c1=O [Compound 251]	–
≥ 5.30	≥ 5.30	–	–	COc1ccc(CCNC(=O)Cn2cnc3c2c(=O)n(C)c(=O)n3C)cc1 [Compound 261, 2-(1,3-Dimethyl-2,6-dioxo-1,2,3,6-tetrahydropurin-7-yl)-N-[2-(4-methoxy-phenyl)-ethyl]-acetamide]	–
≥ 5.30	≥ 5.30	–	–	Cc1ccc2nc(NC(=O)Cn3cnc4c3c(=O)n(C)c(=O)n4C)sc2c1 [Compound 233]	–
≥ 6.00	≥ 5.30	–	–	CCCCc1ccc2nc(NC(=O)Cn3cnc4c3c(=O)n(C)c(=O)n4C)sc2c1 [Compound 269]	–
–	–	< 5.00	< 5.00	CCOC(=O)C1=C(c2ccccc2)NC(=S)NC1c1ccc(OC)cc1 (centres unmarked)	–
–	–	< 5.00	< 5.00	CCOC(=O)C1=C(c2ccccc2)NC(=S)NC1c1cc(C)ccc1C (centres unmarked)	–
–	–	≥ 5.30	≥ 5.30	COC(=O)C1=C(c2ccccc2)NC(=S)NC1c1ccccc1 (centres unmarked)	–
